Assay results: patent publication US7714006B1, “Methods of modifying the bioavailability of metaxalone” (King Pharmaceuticals Research & Development, Inc., priority 2001, dated 2010)
Where two headings read alike, the source gives them in different places.

Experiments:
[1] = Effects of age and gender on PK parameters, 1×800 mg data from study 103 and 2×400 mg data from study 105, fed and fasted; assay type: in vivo, human; conditions: 1×800 mg (103) + 2×400 mg (105)
Protocol: The report is based primarily on two similarly designed studies in which PK parameters were determined under fed and fasted conditions for the 2×400 mg dose of metaxalone: • Study AN151607-103 (hereafter referred to as the 103 study): a four-period, randomized crossover trial with treatment conditions 2×400 mg with food, 2×400 mg without food, 1×800 mg with food, 1×800 mg without food; and • Study ELN151607-105 (hereafter referred to as the 105 study): a two-period, randomized crossover trial with treatment conditions 2×400 mg with food and 2×400 mg without food.
(§1) These analyses are still based on the combined group of n=103 subjects (59 from study 103, 44 from study 105). However, the fed and fasted PK values from the 1×800 dosage of study 103 are used instead of the data from the 2×400 dosage.
as §1, with “It is possible to somewhat independently assess the consistency of the results from Sections 3.2 and 3.3 by repeating the analyses using the 1×800 fed and fasted results from study 103. These” for “These”
The same regression modeling strategy as was described in Sections 3.2 and 3.3 was also used. […] The parameter estimates, standard errors, and p-values for the gender and age effects are shown below for the fed and fasted conditions in TABLE XIb: […]

[2] = Food effect study: single oral Skelaxin 400 mg tablet with vs without food, healthy subjects, plasma pharmacokinetics; assay type: in vivo, human; conditions: for AUC(0-inf) / AUC(0-t) / Cmax / half-life / Tmax: both sexes, human, plasma, oral, 400 mg; for half-life: read-out: T1/2, least squares mean (converted); for Tmax: read-out: Tmax, least squares mean
Protocol: The effect of food on metaxalone absorption was identified in a study designed to compare the bioavailability of 400 mg of metaxalone in the formulation the drug product Skelaxin® administered to healthy volunteers with and without food.
An objective was to evaluate the bioavailability of metaxalone when administered to subjects with and without food. A single center, single dose, open-label, two-period, randomized, crossover trial in healthy subjects was conducted over a period of approximately 32 days.
Treatment A: metaxalone tablet (400 mg) administered with food
Treatment B: metaxalone tablet (400 mg) administered without food
In fed treatment condition A, study drug was taken 15 minutes after the test meal. The test meal was consumed over a 15 minute time period. There was a 6-day washout period between study drug administrations. Seventeen blood samples were collected, starting with baseline (0 hour) and at the following time points: 0.5, 1, 1.5, 2, 2.5, 3, 3.5, 4, 4.5, 5, 6, 8, 12, 16; 24, and 36 hours.
A total of 44 subjects (31 males/13 females) were enrolled and dosed. Only the plasma of subjects who completed the study were assayed and used for the pharmacokinetic analysis.
A single center, single dose, open label, two-period crossover trial was devised for study in healthy subjects. Each administration was a single oral dose of one Skelaxin® 400 mg tablet with or without food. The study drug was administered as follows:
Treatment A: One (1) 400 mg tablet of metaxalone with 240 mL of room temperature water with food: Breakfast was given to the subjects 30 Minutes prior to dosing and eaten within a 15 minute period. The dose of study drug was administered to the subjects 15 minutes after the breakfast was finished.
Treatment B: One (1) 400 mg tablet of metaxalone with 240 mL of room temperature water without food. The study drug was administered with 240 mL room temperature water. A mouth check was performed to verify that the subjects swallowed the dose. Subjects were sequentially dosed at 1-minute intervals. The actual time of dosing was recorded on the Master Flow Sheet (refer to the Appendix 16.3.2 Clinical Study Data). Drug administration (1×400 mg tablet) was assisted with 240 mL of room temperature water consumed under direct observation. Immediately after administration of product, the subject's oral cavity was checked to confirm complete medication and fluid consumption. Dosing was completed as scheduled in 42 of 44 subjects.
The drug substance, metaxalone, was dosed in tablet form. Content 400 mg; Route: Oral, Batch/Lot No.: SKLWW263F; Expiration Date: FEB03; Manufacturer: West-Ward Pharmaceutical Corp.
All pharmacokinetic parameters were analyzed by noncompartmental methods. The following PK parameters were calculated for the two PK profiles and are defined as follows: […]
Tmax: Time to maximum concentration;
Cmax: Observed maximum concentration;
kel: Slope of terminal linear portion of concentration/time curve;
T1/2: Half-life of metaxalone calculated as: 0.693/Kel;
AUC(last): Area under the curve to last quantifiable concentration as measured by the trapezoidal rule;
AUC(inf): The AUC value extrapolated to infinity calculated as:
AUC(inf)=AUC(last)+C(t)last/Kel where C(t)last is the last measurable concentration.
All statistical analyses were performed using SAS® software version 6.08 or higher. The pharmacokinetic parameters between the two treatments were compared using an appropriate ANOVA model (analysis of variance) that includes terms for treatment, sequence, and period effect. Ninety percent confidence intervals were computed for the Cmax and AUC values of the fed treatment with fasting as the reference treatment. During the study there were no protocol deviations to confound the pharmacokinetic and bioavailability analyses. Study results were not corrected for drug potency.
Differences were declared to be significant at the 5% level. […]

[3] = Treatment A: 400 mg tablet with food
[4] = Treatment B: 400 mg tablet without food
[5] = fed vs fasted, ln-transformed data

- Variability of the fasted PK parameters explained by age ([1]; fasted): more than 25%
- Pearson correlation, age vs ln(AUC(inf)) ([1]; fasted, n=103): 0.513
- Pearson correlation, age vs ln(AUC(last)) ([1]; fasted, n=103): 0.522
- Pearson correlation, age vs ln(Cmax) ([1]; fasted, n=103): 0.600
- Spearman correlation, age vs ln(AUC(inf)) ([1]; fasted, n=103): 0.514
- Spearman correlation, age vs ln(AUC(last)) ([1]; fasted, n=103): 0.522
- Spearman correlation, age vs ln(Cmax) ([1]; fasted, n=103): 0.635
- Pearson correlation, age vs ln(AUC(inf)) ([1]; fasted, females n=42): 0.582
- Pearson correlation, age vs ln(AUC(last)) ([1]; fasted, females n=42): 0.596
- Pearson correlation, age vs ln(Cmax) ([1]; fasted, females n=42): 0.607
- Spearman correlation, age vs ln(AUC(inf)) ([1]; fasted, females n=42): 0.596
- Spearman correlation, age vs ln(AUC(last)) ([1]; fasted, females n=42): 0.601
- Spearman correlation, age vs ln(Cmax) ([1]; fasted, females n=42): 0.638
- Pearson correlation, age vs ln(AUC(inf)) ([1]; fasted, males n=61): 0.441
- Pearson correlation, age vs ln(AUC(last)) ([1]; fasted, males n=61): 0.447
- Pearson correlation, age vs ln(Cmax) ([1]; fasted, males n=61): 0.567
- Spearman correlation, age vs ln(AUC(inf)) ([1]; fasted, males n=61): 0.499
- Spearman correlation, age vs ln(AUC(last)) ([1]; fasted, males n=61): 0.501
- Spearman correlation, age vs ln(Cmax) ([1]; fasted, males n=61): 0.599
- Variability of the fed PK parameters explained by age ([1]; fed): ≤ 5%
- Pearson correlation, age vs ln(AUC(inf)) ([1]; fed, n=103): 0.237
- Pearson correlation, age vs ln(AUC(last)) ([1]; fed, n=103): 0.229
- Pearson correlation, age vs ln(Cmax) ([1]; fed, n=103): 0.040
- Spearman correlation, age vs ln(AUC(inf)) ([1]; fed, n=103): 0.281
- Spearman correlation, age vs ln(AUC(last)) ([1]; fed, n=103): 0.276
- Spearman correlation, age vs ln(Cmax) ([1]; fed, n=103): 0.086
- Pearson correlation, age vs ln(AUC(inf)) ([1]; fed, females n=42): 0.436
- Pearson correlation, age vs ln(AUC(last)) ([1]; fed, females n=42): 0.408
- Pearson correlation, age vs ln(Cmax) ([1]; fed, females n=42): 0.258
- Spearman correlation, age vs ln(AUC(inf)) ([1]; fed, females n=42): 0.432
- Spearman correlation, age vs ln(AUC(last)) ([1]; fed, females n=42): 0.410
- Spearman correlation, age vs ln(Cmax) ([1]; fed, females n=42): 0.202
- Pearson correlation, age vs ln(AUC(inf)) ([1]; fed, males n=61): 0.023
- Pearson correlation, age vs ln(AUC(last)) ([1]; fed, males n=61): 0.022
- Pearson correlation, age vs ln(Cmax) ([1]; fed, males n=61): −0.170
- Spearman correlation, age vs ln(AUC(inf)) ([1]; fed, males n=61): 0.187
- Spearman correlation, age vs ln(AUC(last)) ([1]; fed, males n=61): 0.188
- Spearman correlation, age vs ln(Cmax) ([1]; fed, males n=61): −0.001
- Bioavailability when administered with food ([2]; 400 mg tablets, single dose, with food vs without): increased
- AUC(0-inf) ([2]; Treatment A: 400 mg tablet with food, read-out: AUC(inf), least squares mean): 8540 ng·h/mL
- AUC(0-t) ([2]; Treatment A: 400 mg tablet with food, read-out: AUC(last), least squares mean): 8440 ng·h/mL
- Cmax ([2]; Treatment A: 400 mg tablet with food, read-out: Cmax, least squares mean): 1770 ng/mL
- AUC(0-inf) ([2]; Treatment A: 400 mg tablet with food, read-out: Ln-Transformed AUC(inf), geometric mean): 7630 ng·h/mL
- AUC(0-t) ([2]; Treatment A: 400 mg tablet with food, read-out: Ln-Transformed AUC(last), geometric mean): 7520 ng·h/mL
- Cmax ([2]; Treatment A: 400 mg tablet with food, read-out: Ln-Transformed Cmax, geometric mean): 1540 ng/mL
- half-life [2, 3]: 142 min
- Tmax [2, 3]: 4.29 h
- AUC(0-inf) ([2]; Treatment B: 400 mg tablet without food, read-out: AUC(inf), least squares mean): 7480 ng·h/mL
- AUC(0-t) ([2]; Treatment B: 400 mg tablet without food, read-out: AUC(last), least squares mean): 6960 ng·h/mL
- Cmax ([2]; Treatment B: 400 mg tablet without food, read-out: Cmax, least squares mean): 983 ng/mL
- AUC(0-inf) ([2]; Treatment B: 400 mg tablet without food, read-out: Ln-Transformed AUC(inf), geometric mean): 6620 ng·h/mL
- AUC(0-t) ([2]; Treatment B: 400 mg tablet without food, read-out: Ln-Transformed AUC(last), geometric mean): 6090 ng·h/mL
- Cmax ([2]; Treatment B: 400 mg tablet without food, read-out: Ln-Transformed Cmax, geometric mean): 865 ng/mL
- half-life [2, 4]: 542 min
- Tmax [2, 4]: 3.32 h
- % Ratio (A/B) AUC(inf) [2, 5]: 115.35%
- % Ratio (A/B) AUC(last) [2, 5]: 123.48%
- % Ratio (A/B) Cmax [2, 5]: 177.53%
Structure (SMILES): Cc1cc(C)cc(OCC2CNC(=O)O2)c1 (stereo not shown) [metaxalone, 5-[(3,5-dimethylphenoxy)methyl]-2 oxazolidinone]
